Read-outs that look alike come from different tables or passages of the source.
Target: T1, RORγ ligand binding domain (LBD) (Homo sapiens, UniProt P51449)
T1 construct: made in house; host or cells: E. coli BL-21 (BL3), vector pDEST15
T1 sequence (P51449 269-508 limits assumed): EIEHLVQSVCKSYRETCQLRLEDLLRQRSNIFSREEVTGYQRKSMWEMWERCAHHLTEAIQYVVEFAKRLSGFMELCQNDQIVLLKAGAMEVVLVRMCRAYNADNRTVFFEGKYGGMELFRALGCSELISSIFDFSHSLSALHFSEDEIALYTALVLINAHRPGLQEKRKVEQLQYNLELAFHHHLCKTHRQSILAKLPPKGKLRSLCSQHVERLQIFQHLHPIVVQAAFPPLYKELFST
Assay: TR-FRET Activity Assay (ligand sensing, RORγ-LBD / coactivator peptide interaction)
Assay type: biochemical
Excerpt: This method measures the ability of putative ligands to modulate the interaction between the purified bacterial expressed RORγ ligand binding domain (LBD) and synthetic N-terminally biotinylated peptides which are derived from nuclear receptor coactivator proteins such as but not limited to SRC1 (NcoA1), SRC2 (NcoA2, TIF2), SRC3 (NcoA3), PGC1α, PGC1β, CBP, GRIP1, TRAP220, RIP140.
The ligand-binding domain (LBD) of RORγ was expressed as fusion protein with GST in […] cells using the vector pDEST15. Cells were lysed by lysozyme-treatment and sonication, and the fusion proteins purified over glutathione sepharose (Pharmacia) according to the manufacturers instructions. For screening of compounds for their influence on the RORγ-peptide interaction, the LANCE technology (Perkin Elmer) was applied. This method relies on the binding dependent energy transfer from a donor to an acceptor fluorophor attached to the binding partner of interest. For ease of handling and reduction of background from compound fluorescence LANCE technology makes use of generic fluorophore labels and time resolved detection assays were done in a final volume of 25 μL in a 384 well plate, in a Tris-based buffer system (20 mM Tris-HCl pH6.8; 60 mM KCl, 1 mM DTT; 5 mM MgCl2; 35 ng/μL BSA), containing 20-60 ng/well recombinantly expressed RORγ-LBD fused to GST, 200-600 nM N-terminally biotinylated peptide, 200 ng/well Streptavidin-xIAPC conjugate (Prozyme) and 6-10 ng/well Eu W1024-antiGST (Perkin Elmer). DMSO content of the samples was kept at 1%.
After generation of the Tris-based buffer system, the potentially RORγ modulating ligands were diluted. […] The LANCE signal was detected by a Perkin Elmer EnVision™ Multilabel Counter. The results were visualized by plotting the ratio between the emitted light at 665 nm and 615 nm. […] Ligands that promote the complex formation induce a concentration-dependent increase in time-resolved fluorescent signal.
The normalised TR-FRET assay values, using the following equation: 1000*665 nm measurement value/615 nm measurement value, were transferred to the program GraphPad Prism to generate graphs and dose response curves using the following equation:
Equation: Sigmoidal Dose-Response (Variable Slope) Y=Bottom+(Top-Bottom)/(1+10^((LogEC50−X)*HillSlope)) X is the logarithm of the concentration. Y is the response. Y starts at Bottom and goes to Top with a sigmoidal shape.
This is identical to the “four parameter logistic equation”. The IC50 values are calculated using this equation.

[1] = read-out: RORγ activity in the TR-FRET Activity Assay (IC50 FRET), Group

| IC50 [1] | SMILES | IC50 |
| --- | --- | --- |
| < 500 nM | Cc1c(S(=O)(=O)NCCCCCO)cc(-c2cc(C(C)(C)C)cc(C(C)(C)C)c2)n1CC1CCCCC1 [Example 5] |  |
| 500 to 2000 nM | Cc1c(S(N)(=O)=O)cc(-c2cc(C(C)(C)C)cc(C(C)(C)C#N)c2)n1CC1CCCCC1 [Example 45, 5-(3-(tert-Butyl)-5-(2-cyanopropan-2-yl)phenyl)-1-(cyclohexylmethyl)-2-methyl-1H-pyrrole-3-sulfonamide] |  |
| < 500 nM | Cc1c(S(N)(=O)=O)cc(-c2cc(C(C)(C)C)nc(C(C)(C)C)c2)n1CC1CCCCC1 [Example 18, 1-(Cyclohexylmethyl)-5-(2,6-di-tert-butylpyridin-4-yl)-2-methyl-1H-pyrrole-3-sulfonamide] |  |
| 500 to 2000 nM | Cc1c(S(N)(=O)=O)cc(C2=CC(S(=O)(=O)c3ccc(Cl)cc3)c3ccccc32)n1CC1CCCCC1 (stereo not shown) [53/2] |  |
| > 2000 nM | Cc1c(S(N)(=O)=O)cc(-c2cc(C(F)(F)F)c(=O)n(CC(C)(C)C)c2)n1CC1CCCCC1 [Example 34, 1-(Cyclohexylmethyl)-2-methyl-5-(1-neopentyl-6-oxo-5-(trifluoromethyl)-1,6-dihydropyridin-3-yl)-1H-pyrrole-3-sulfonamide] |  |
| < 500 nM | CC(C)(C)c1cc(-c2cc(S(N)(=O)=O)c(C#N)n2CC2CCCCC2)cc(C(C)(C)C)c1 [Example 33, 2-Cyano-1-(cyclohexylmethyl)-5-(3,5-di-tert-butylphenyl)-1H-pyrrole-3-sulfonamide] |  |
| < 500 nM | Cc1c(S(N)(=O)=O)cc(-c2cc(C(C)(C)C)c(C#N)c(C(C)(C)C)c2)n1CC1CCCCC1 [Example 9, 1-(Cyclohexylmethyl)-5-(3,5-di-tert-butyl-4-cyanophenyl)-2-methyl-1H-pyrrole-3-sulfonamide] |  |
| > 2000 nM | Cn1c(S(N)(=O)=O)cc(-c2cc(C(C)(C)C)cc(C(C)(C)C)c2)c1CC1CCCCC1 [Example 25, 5-(Cyclohexylmethyl)-4-(3,5-di-tert-butylphenyl)-1-methyl-1H-pyrrole-2-sulfonamide] |  |
| < 500 nM | Cc1c(S(N)(=O)=O)cc(-c2cc(C(C)(C)C)cc(C(C)(C)C)c2)n1CC1CCCCC1 [Example 1, 1-(Cyclohexylmethyl)-5-(3,5-di-tert-butylphenyl)-2-methyl-1H-pyrrole-3-sulfonamide] |  |

Further lines, the compound ahead of its results:

| SMILES | IC50 [1] | IC50 |
| --- | --- | --- |
| Cc1c(S(N)(=O)=O)cc(-c2ccc(S(=O)(=O)N3CCCCC3)c(C(C)(C)C)c2)n1CC1CCCCC1 [1/25] | < 500 nM |  |
| Cc1c(S(N)(=O)=O)cc(-c2ccc(S(=O)(=O)NC(C)(C)C)c(C(F)(F)F)c2)n1CC1CCCCC1 [22/5] | < 500 nM |  |
| Cc1c(S(=O)(=O)NCC(C)(C)C(=O)O)cc(-c2cc(C(C)(C)C)cc(C3(C)CC3)c2)n1CC1CCCCC1 [11/1] | > 2000 nM |  |
| Cc1c(S(N)(=O)=O)cc(-c2cc(OCC(F)(F)F)nc(C(C)(C)C)c2)n1CC1CCCCC1 [12/12] | < 500 nM |  |
| Cc1c(S(N)(=O)=O)cc(-c2cc3c(c(C(C)(C)C)c2)OCCC3=O)n1CC1CCCCC1 [12/28] | 500 to 2000 nM |  |
| Cc1c(S(=O)(=O)NCC2COCCN2C)cc(-c2cc(C(C)(C)C)cc(C(C)(C)C)c2)n1CC1CCCCC1 (stereo not shown) [5/11] | 500 to 2000 nM |  |
| Cc1c(S(N)(=O)=O)cc(-c2cc(C(=O)N(C)C(C)(C)C)cc(C(F)(F)F)c2)n1CC1CCCCC1 [13/14] | > 2000 nM |  |
| Cc1c(S(N)(=O)=O)cc(-c2cn(S(=O)(=O)N(C)C(C)(C)C)c3ccccc23)n1CC1CCCCC1 [1/31] | < 500 nM |  |
| Cc1c(S(N)(=O)=O)cc(-c2cc(C(C)(C)C)cc(C(C)(C)CO)c2)n1CC1CCCCC1 [Example 50] |  | > 2000 nM |
| Cc1c(S(N)(=O)=O)cc(-c2cn(S(=O)(=O)c3cccc(Cl)c3)c3ccccc23)n1CC1CCCCC1 [53/1] | > 2000 nM |  |
| Cc1c(S(N)(=O)=O)cc(-c2ccc(S(=O)(=O)N3CCCCC3(C)C)c(C(F)(F)F)c2)n1CC1CCCCC1 [22/9] | 500 to 2000 nM |  |
| Cc1c(S(N)(=O)=O)cc(-c2cccc(N3CCCC3)c2)n1CC1CCCCC1 [1/14] | > 2000 nM |  |
| CCC(=O)NCC(C)(C)c1cc(-c2cc(S(N)(=O)=O)c(C)n2CC2CCCCC2)cc(C(C)(C)C)c1 [49/1] | > 2000 nM |  |
| Cc1c(S(N)(=O)=O)cc(-c2cc(C(C)(C)C)cc(C(C)(C)CNC(=O)C3CC3)c2)n1CC1CCCCC1 [49/2] | > 2000 nM |  |
| Cc1c(S(N)(=O)=O)cc(-c2cc(C(=O)NC(C)(C)C)cc(C(F)(F)F)c2)n1CC1CCCCC1 [13/13] | 500 to 2000 nM |  |
| Cc1c(S(N)(=O)=O)cc(-c2cccc(S(=O)(=O)N(C)C(C)(C)C)c2)n1CC1CCCCC1 [1/17] | > 2000 nM |  |
| Cc1c(S(N)(=O)=O)cc(-c2ccc(N3CCOCC3)c(C(C)(C)C)c2)n1CC1CCCCC1 [12/34] | 500 to 2000 nM |  |
| Cc1c(S(N)(=O)=O)cc(-c2ccc(S(=O)(=O)N3CCC(C)CC3)c(C(C)(C)C)c2)n1CC1CCCCC1 [1/26] | 500 to 2000 nM |  |
| Cc1c(S(N)(=O)=O)cc(-c2cc(C(C)(C)C)cc(C(C)(C)C)c2)n1CC1CCCCCC1 [1/37] | < 500 nM |  |

Reference: patent US8946446B2, “Pyrrolo sulfonamide compounds for modulation of orphan nuclear receptor RAR-related orphan receptor-γ (ROR-γ, NR1F3) activity and for the treatment of chronic inflammatory and autoimmune diseases” (Phenex Pharmaceuticals AG, priority 2011, dated 2015)
